The source made the active and inactive calls. No cut-off for these calls is given here.
Experiments:
SNB-19 [1] = experiment: Growth inhibition of human SNB19 cells assessed as cell growth at 10^-5 M incubated for 48 hrs by sulforhodamine B assay relative to control; format: functional; conditions: SNB-19, 48 h, read-out: Activity
MDA-MB-435 [2] = experiment: Induction of apoptosis in human MDA-MB-435 cells assessed as early apoptotic cells by propidium iodide/Annexin V staining based flow cytometry (reference value: 0.25%); format: functional
MDA-MB-231 [3] = experiment: Growth inhibition of human MDA-MB-231 cells assessed as cell growth at 10^-5 M incubated for 48 hrs by sulforhodamine B assay relative to control; format: functional; conditions: MDA-MB-231, 48 h, read-out: Activity
NCI-H322M = experiment: Growth inhibition of human NCI-H322M cells incubated for 48 hrs by sulforhodamine B assay; format: functional
UO-31 [4] = experiment: Growth inhibition of human UO31 cells incubated for 48 hrs by sulforhodamine B assay; format: functional; conditions: UO-31, 48 h
UO-31 [5] = experiment: Growth inhibition of human UO31 cells assessed as cell growth at 10^-7 M incubated for 48 hrs by sulforhodamine B assay relative to control; format: functional; conditions: UO-31, 48 h, read-out: Activity
MDA-MB-435 [6] = experiment: Induction of apoptosis in human MDA-MB-435 cells assessed as increase in caspase-3 expression by qRT-PCR method; format: functional, cell-based
HL-60(TB) = experiment: Growth inhibition of human HL-60(TB) cells assessed as cell growth at 10^-5 M incubated for 48 hrs by sulforhodamine B assay relative to control; format: functional; conditions: HL-60, 48 h, read-out: Activity
A498 = experiment: Growth inhibition of human A498 cells assessed as cell growth at 10^-7 M incubated for 48 hrs by sulforhodamine B assay relative to control; format: functional; conditions: A498, 48 h, read-out: Activity
OVCAR-4 [7] = experiment: Growth inhibition of human OVCAR4 cells assessed as cell growth at 10^-5 M incubated for 48 hrs by sulforhodamine B assay relative to control; format: functional; conditions: OVCAR-4, 48 h, read-out: Activity
TK-10 = experiment: Growth inhibition of human TK10 cells assessed as cell growth at 10^-4 M incubated for 48 hrs by sulforhodamine B assay relative to control; format: functional; conditions: TK-10, 48 h, read-out: Activity
MDA-MB-231 [8] = experiment: Growth inhibition of human MDA-MB-231 cells assessed as cell growth at 10^-6 M incubated for 48 hrs by sulforhodamine B assay relative to control; format: functional; conditions: MDA-MB-231, 48 h, read-out: Activity
OVCAR-5 = experiment: Growth inhibition of human OVCAR5 cells assessed as cell growth at 10^-6 M incubated for 48 hrs by sulforhodamine B assay relative to control; format: functional; conditions: OVCAR-5, 48 h, read-out: Activity
Malme-3M [9] = experiment: Growth inhibition of human MALME-3M cells assessed as cell growth at 10^-4 M incubated for 48 hrs by sulforhodamine B assay relative to control; format: functional; conditions: read-out: Activity
SF-268 [10] = experiment: Growth inhibition of human SF268 cells incubated for 48 hrs by sulforhodamine B assay; format: functional; conditions: SF-268, 48 h
SF-268 [11] = experiment: Growth inhibition of human SF268 cells assessed as cell growth at 10^-8 M incubated for 48 hrs by sulforhodamine B assay relative to control; format: functional; conditions: SF-268, 48 h, read-out: Activity
SNB-19 [12] = experiment: Growth inhibition of human SNB19 cells assessed as cell growth at 10^-4 M incubated for 48 hrs by sulforhodamine B assay relative to control; format: functional; conditions: SNB-19, 48 h, read-out: Activity
EKVX = experiment: Growth inhibition of human EKVX cells assessed as cell growth at 10^-4 M incubated for 48 hrs by sulforhodamine B assay relative to control; format: functional; conditions: read-out: Activity
T47D = experiment: Growth inhibition of human T47D cells assessed as cell growth at 10^-6 M incubated for 48 hrs by sulforhodamine B assay relative to control; format: functional; conditions: read-out: Activity
BT-549 = experiment: Growth inhibition of human BT549 cells assessed as cell growth at 10^-5 M incubated for 48 hrs by sulforhodamine B assay relative to control; format: functional; conditions: BT-549, 48 h, read-out: Activity
HCT-15 = experiment: Growth inhibition of human HCT15 cells incubated for 48 hrs by sulforhodamine B assay; format: functional; conditions: HCT-15, 48 h
IGROV-1 = experiment: Growth inhibition of human IGROV1 cells assessed as cell growth at 10^-7 M incubated for 48 hrs by sulforhodamine B assay relative to control; format: functional; conditions: IGROV-1, 48 h, read-out: Activity
UO-31 [13] = experiment: Growth inhibition of human UO31 cells assessed as cell growth at 10^-8 M incubated for 48 hrs by sulforhodamine B assay relative to control; format: functional; conditions: UO-31, 48 h, read-out: Activity
MDA-MB-435 [14] = experiment: Downregulation of HDAC2 mRNA expression in human MDA-MB-435 cells by qRT-PCR method relative to control; format: functional
MDA-MB-435 [15] = experiment: Growth inhibition of human MDA-MB-435 cells assessed as cell growth at 10^-7 M incubated for 48 hrs by sulforhodamine B assay relative to control; format: functional; conditions: MDA-MB-435, 48 h, read-out: Activity
Malme-3M [16] = experiment: Growth inhibition of human MALME-3M cells assessed as cell growth at 10^-5 M incubated for 48 hrs by sulforhodamine B assay relative to control; format: functional; conditions: read-out: Activity
NCI-H23 = experiment: Growth inhibition of human NCI-H23 cells incubated for 48 hrs by sulforhodamine B assay; format: functional; conditions: NCI-H23, 48 h
OVCAR-4 [17] = experiment: Growth inhibition of human OVCAR4 cells assessed as cell growth at 10^-8 M incubated for 48 hrs by sulforhodamine B assay relative to control; format: functional; conditions: OVCAR-4, 48 h, read-out: Activity
ACHN = experiment: Growth inhibition of human ACHN cells incubated for 48 hrs by sulforhodamine B assay; format: functional
M14 = experiment: Growth inhibition of human M14 cells assessed as cell growth at 10^-6 M incubated for 48 hrs by sulforhodamine B assay relative to control; format: functional; conditions: M14, 48 h, read-out: Activity
UACC-62 = experiment: Growth inhibition of human UACC62 cells assessed as cell growth at 10^-8 M incubated for 48 hrs by sulforhodamine B assay relative to control; format: functional; conditions: UACC-62, 48 h, read-out: Activity
[18] = read-out: LC50 (the source's name)
[19] = read-out: pLC50 (the source's name) (converted)

## CCS/C(Nc1ccccc1)=C(\C#N)C(=O)Nc1ccc(OC)cc1
SNB-19 [1]
  growth at 10 µM: 22%
MDA-MB-435 [2]
  Activity: 4.61%
MDA-MB-231 [3]
  growth at 10 µM: 23%
NCI-H322M; read-out: GI50
  GI50: 5.81 µM
NCI-H322M; [18]
  CC50: > 100 µM
NCI-H322M; read-out: TGI
  TGI: > 100 µM
NCI-H322M; read-out: pGI50 (converted)
  GI50: 5.75 µM
NCI-H322M; [19]
  CC50: > 100 µM
NCI-H322M; read-out: pTGI
  TGI: > 100 µM
UO-31 [4]; read-out: GI50
  GI50: 5.49 µM
UO-31 [4]; [18]
  CC50: > 100 µM
UO-31 [4]; read-out: TGI
  TGI: > 100 µM
UO-31 [4]; read-out: pGI50 (converted)
  GI50: 5.5 µM
UO-31 [4]; [19]
  CC50: > 100 µM
UO-31 [4]; read-out: pTGI
  TGI: > 100 µM
UO-31 [5]
  growth at 0.1 µM: 91%
MDA-MB-435 [6]
  Activity: Active
HL-60(TB)
  growth at 10 µM: 7%
A498
  growth at 0.1 µM: 90%
OVCAR-4 [7]
  growth at 10 µM: 45%
TK-10
  growth at 100 µM: 24%
MDA-MB-231 [8]
  growth at 1 µM: 93%
OVCAR-5
  growth at 1 µM: 98%
Malme-3M [9]
  growth at 100 µM: 45%
SF-268 [10]; read-out: GI50
  GI50: 6.8 µM
SF-268 [10]; [18]
  CC50: > 100 µM
SF-268 [10]; read-out: TGI
  TGI: > 100 µM
SF-268 [10]; read-out: pGI50 (converted)
  GI50: 6.76 µM
SF-268 [10]; [19]
  CC50: > 100 µM
SF-268 [10]; read-out: pTGI
  TGI: > 100 µM
SF-268 [11]
  growth at 0.01 µM: 101%
SNB-19 [12]
  growth at 100 µM: 14%
EKVX
  growth at 100 µM: 16%
T47D
  growth at 1 µM: 88%
BT-549
  growth at 10 µM: 21%
HCT-15; read-out: GI50
  GI50: 1.19 µM
HCT-15; [18]
  CC50: > 100 µM
HCT-15; read-out: TGI
  TGI: > 100 µM
HCT-15; read-out: pGI50 (converted)
  GI50: 1.2 µM
HCT-15; [19]
  CC50: > 100 µM
HCT-15; read-out: pTGI
  TGI: > 100 µM
IGROV-1
  growth at 0.1 µM: 101%
UO-31 [13]
  growth at 0.01 µM: 93%
MDA-MB-435 [14]
  fold change (FC): <=10
MDA-MB-435 [15]
  growth at 0.1 µM: 91%
Malme-3M [16]
  growth at 10 µM: 61%
NCI-H23; read-out: GI50
  GI50: 4.9 µM
NCI-H23; read-out: LC50
  LC50: > 100 µM
NCI-H23; read-out: TGI
  TGI: > 100 µM
NCI-H23; read-out: pGI50 (converted)
  GI50: 4.9 µM
NCI-H23; read-out: pLC50 (converted)
  LC50: > 100 µM
NCI-H23; read-out: pTGI
  TGI: > 100 µM
OVCAR-4 [17]
  growth at 0.01 µM: 104%
ACHN; read-out: GI50
  GI50: 5.04 µM
ACHN; [18]
  CC50: > 100 µM
ACHN; read-out: TGI
  TGI: > 100 µM
ACHN; read-out: pGI50 (converted)
  GI50: 5.01 µM
ACHN; [19]
  CC50: > 100 µM
ACHN; read-out: pTGI
  TGI: > 100 µM
M14
  growth at 1 µM: 72%
UACC-62
  growth at 0.01 µM: 93%

— ChEMBL document CHEMBL4145553, “Design, synthesis, and biological evaluation of novel amide and hydrazide based thioether analogs targeting Histone deacteylase (HDAC) enzymes” (Eur J Med Chem, 2018)
